# Data reported in the supplement of paper PMC9663587.
# Tests used:
# [1] = compound: CCN1CCN(Cc2ccc(Nc3ncc(F)c(-c4cc(F)c5nc(C)n(C(C)C)c5c4)n3)nc2)CC1; test: increase in dead-cell fraction, 72 h; higher = more death;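 note: breast cancer cell lines in 384-well plates, stained with Hoechst plus LIVE/DEAD far red dye and imaged, cells above an LDR intensity threshold counted dead, Hoechst-negative corpses included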
# LEE011/Ribociclib [2] = compound: T1, CN(C)C(=O)c1cc2cnc(Nc3ccc(N4CCNCC4)cn3)nc2n1C1CCCC1 [LEE011/Ribociclib]; test: as above
# Flavopiridol [3] = compound: T2, CN1CC[C@H](c2c(O)cc(O)c3c(=O)cc(-c4ccccc4Cl)oc23)[C@H](O)C1 [Flavopiridol]; test: as above
# [4] = compound: CC(=O)c1c(C)c2cnc(Nc3ccc(N4CCNCC4)cn3)nc2n(C2CCCC2)c1=O; test: as above
# [5] = compound: CCN1CCN(Cc2ccc(Nc3ncc(F)c(-c4cc(F)c5nc(C)n(C(C)C)c5c4)n3)nc2)CC1; test: GR value, 72 h; higher = faster growth (1 = untreated, <0 = killing);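 note: breast cancer and non-malignant breast epithelial lines, nine half-log doses, viable cells counted by Hoechst and LIVE/DEAD dye imaging versus time-zero plates and DMSO controls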
# THZ1 = compound: CN(C)C/C=C/C(=O)Nc1ccc(C(=O)Nc2cccc(Nc3ncc(Cl)c(-c4c[nH]c5ccccc45)n3)c2)cc1 [THZ1]; test: as above
# LEE011/Ribociclib [6] = compound: T1, LEE011/Ribociclib; test: as above
# Neratinib/HKI272 = compound: CCOc1cc2ncc(C#N)c(Nc3ccc(OCc4ccccn4)c(Cl)c3)c2cc1NC(=O)/C=C/CN(C)C [Neratinib/HKI272]; test: as above
# Flavopiridol [7] = compound: T2, Flavopiridol; test: as above
# [8] = compound: CCc1cnn2c(NCc3ccc[n+]([O-])c3)cc(N3CCCC[C@H]3CCO)nc12; test: as above
# BSJ-03-123 = compound: CC(=O)c1c(C)c2cnc(Nc3ccc(N4CCN(CCOCCOCCOCCNC(=O)COc5cccc6c5C(=O)N(C5CCC(=O)NC5=O)C6=O)CC4)cn3)nc2n(C2CCCC2)c1=O [BSJ-03-123]; test: as above
# [9] = compound: CC(=O)c1c(C)c2cnc(Nc3ccc(N4CCNCC4)cn3)nc2n(C2CCCC2)c1=O; test: as above
cell line,measurement,setting,value
PDX1328,increase in dead-cell fraction,[1]; 0.001 µM,0.0018
same,increase in dead-cell fraction,[1]; 0.003162 µM,-0.0052
same,increase in dead-cell fraction,[1]; 0.01 µM,0.0039
same,increase in dead-cell fraction,[1]; 0.03162 µM,0.0167
same,increase in dead-cell fraction,[1]; 0.1 µM,0.0116
same,increase in dead-cell fraction,[1]; 0.3162 µM,0.0089
same,increase in dead-cell fraction,[1]; 1 µM,0.0192
same,increase in dead-cell fraction,[1]; 3.162 µM,0.029
same,increase in dead-cell fraction,[1]; 10 µM,0.475
same,increase in dead-cell fraction,LEE011/Ribociclib [2]; 0.001 µM,-0.0001
same,increase in dead-cell fraction,LEE011/Ribociclib [2]; 0.003162 µM,-0.0049
same,increase in dead-cell fraction,LEE011/Ribociclib [2]; 0.01 µM,-0.0091
same,increase in dead-cell fraction,LEE011/Ribociclib [2]; 0.03162 µM,-0.0001
same,increase in dead-cell fraction,LEE011/Ribociclib [2]; 0.1 µM,0.0131
same,increase in dead-cell fraction,LEE011/Ribociclib [2]; 0.3162 µM,0.0012
same,increase in dead-cell fraction,LEE011/Ribociclib [2]; 1 µM,-0.0011
same,increase in dead-cell fraction,LEE011/Ribociclib [2]; 3.162 µM,0.005
same,increase in dead-cell fraction,LEE011/Ribociclib [2]; 10 µM,0.0126
same,increase in dead-cell fraction,Flavopiridol [3]; 0.0001 µM,0.003
same,increase in dead-cell fraction,Flavopiridol [3]; 0.0003162 µM,-0.0035
same,increase in dead-cell fraction,Flavopiridol [3]; 0.001 µM,-0.0003
same,increase in dead-cell fraction,Flavopiridol [3]; 0.003162 µM,-0.0025
same,increase in dead-cell fraction,Flavopiridol [3]; 0.01 µM,-0.0027
same,increase in dead-cell fraction,Flavopiridol [3]; 0.03162 µM,-0.0044
same,increase in dead-cell fraction,Flavopiridol [3]; 0.1 µM,-0.0014
same,increase in dead-cell fraction,Flavopiridol [3]; 0.3162 µM,0.0342
same,increase in dead-cell fraction,Flavopiridol [3]; 1 µM,0.348
same,increase in dead-cell fraction,[4]; 0.0003162 µM,-0.0028
same,increase in dead-cell fraction,[4]; 0.001 µM,0.0004
same,increase in dead-cell fraction,[4]; 0.003162 µM,-0.0023
same,increase in dead-cell fraction,[4]; 0.01 µM,0.0019
same,increase in dead-cell fraction,[4]; 0.03162 µM,-0.005
same,increase in dead-cell fraction,[4]; 0.1 µM,0.0014
same,increase in dead-cell fraction,[4]; 0.3162 µM,-0.0028
same,increase in dead-cell fraction,[4]; 1 µM,0.0026
same,increase in dead-cell fraction,[4]; 3.162 µM,0.0055
same,GR value,[5]; 0.001 µM,0.866 GR
same,GR value,[5]; 0.003162 µM,0.775 GR
same,GR value,[5]; 0.01 µM,0.537 GR
same,GR value,[5]; 0.03162 µM,0.323 GR
same,GR value,[5]; 0.1 µM,0.266 GR
same,GR value,[5]; 0.3162 µM,0.301 GR
same,GR value,[5]; 1 µM,0.263 GR
same,GR value,[5]; 3.162 µM,0.176 GR
same,GR value,[5]; 10 µM,-0.621 GR
same,GR value,THZ1; 0.0001 µM,0.984 GR
same,GR value,THZ1; 0.0003162 µM,1.06 GR
same,GR value,THZ1; 0.001 µM,1.11 GR
same,GR value,THZ1; 0.003162 µM,0.868 GR
same,GR value,THZ1; 0.01 µM,0.532 GR
same,GR value,THZ1; 0.03162 µM,-0.0495 GR
same,GR value,THZ1; 0.1 µM,-0.397 GR
same,GR value,THZ1; 0.3162 µM,-0.435 GR
same,GR value,THZ1; 1 µM,-0.711 GR
same,GR value,LEE011/Ribociclib [6]; 0.001 µM,0.927 GR
same,GR value,LEE011/Ribociclib [6]; 0.003162 µM,0.816 GR
same,GR value,LEE011/Ribociclib [6]; 0.01 µM,0.661 GR
same,GR value,LEE011/Ribociclib [6]; 0.03162 µM,0.649 GR
same,GR value,LEE011/Ribociclib [6]; 0.1 µM,0.481 GR
same,GR value,LEE011/Ribociclib [6]; 0.3162 µM,0.514 GR
same,GR value,LEE011/Ribociclib [6]; 1 µM,0.528 GR
same,GR value,LEE011/Ribociclib [6]; 3.162 µM,0.394 GR
same,GR value,LEE011/Ribociclib [6]; 10 µM,0.425 GR
same,GR value,Neratinib/HKI272; 0.0003162 µM,1.02 GR
same,GR value,Neratinib/HKI272; 0.001 µM,1.02 GR
same,GR value,Neratinib/HKI272; 0.003162 µM,1.01 GR
same,GR value,Neratinib/HKI272; 0.01 µM,0.898 GR
same,GR value,Neratinib/HKI272; 0.03162 µM,0.762 GR
same,GR value,Neratinib/HKI272; 0.1 µM,0.675 GR
same,GR value,Neratinib/HKI272; 0.3162 µM,0.537 GR
same,GR value,Neratinib/HKI272; 1 µM,0.223 GR
same,GR value,Neratinib/HKI272; 3.162 µM,0.0191 GR
same,GR value,Flavopiridol [7]; 0.0001 µM,1.06 GR
same,GR value,Flavopiridol [7]; 0.0003162 µM,1.06 GR
same,GR value,Flavopiridol [7]; 0.001 µM,0.963 GR
same,GR value,Flavopiridol [7]; 0.003162 µM,0.955 GR
same,GR value,Flavopiridol [7]; 0.01 µM,1.01 GR
same,GR value,Flavopiridol [7]; 0.03162 µM,1.08 GR
same,GR value,Flavopiridol [7]; 0.1 µM,0.909 GR
same,GR value,Flavopiridol [7]; 0.3162 µM,0.239 GR
same,GR value,Flavopiridol [7]; 1 µM,-0.603 GR
same,GR value,[8]; 0.0001 µM,1.05 GR
same,GR value,[8]; 0.0003162 µM,1.11 GR
same,GR value,[8]; 0.001 µM,1.06 GR
same,GR value,[8]; 0.003162 µM,1.05 GR
same,GR value,[8]; 0.01 µM,0.907 GR
same,GR value,[8]; 0.03162 µM,-0.453 GR
same,GR value,[8]; 0.1 µM,-0.581 GR
same,GR value,[8]; 0.3162 µM,-0.571 GR
same,GR value,[8]; 1 µM,-0.53 GR
same,GR value,BSJ-03-123; 0.001 µM,0.951 GR
same,GR value,BSJ-03-123; 0.003162 µM,0.816 GR
same,GR value,BSJ-03-123; 0.01 µM,0.819 GR
same,GR value,BSJ-03-123; 0.03162 µM,0.792 GR
same,GR value,BSJ-03-123; 0.1 µM,0.852 GR
same,GR value,BSJ-03-123; 0.3162 µM,0.646 GR
same,GR value,BSJ-03-123; 1 µM,0.479 GR
same,GR value,BSJ-03-123; 3.162 µM,0.531 GR
same,GR value,BSJ-03-123; 10 µM,0.0901 GR
same,GR value,[9]; 0.0003162 µM,1.04 GR
same,GR value,[9]; 0.001 µM,1.1 GR
same,GR value,[9]; 0.003162 µM,1.06 GR
same,GR value,[9]; 0.01 µM,0.938 GR
same,GR value,[9]; 0.03162 µM,0.751 GR
same,GR value,[9]; 0.1 µM,0.557 GR
same,GR value,[9]; 0.3162 µM,0.518 GR
same,GR value,[9]; 1 µM,0.414 GR
same,GR value,[9]; 3.162 µM,0.399 GR
